The source of these data is patent US20240148757A1, “USE OF DIHYDROOROTATE DEHYDROGENASE (DHODH) INHIBITORS TO TARGET FERROPTOSIS IN CANCER THERAPY” (BOARD OF REGENTS, THE UNIVERSITY OF TEXAS SYSTEM, priority 2021, published 2024).

One series relates to GPX4^low NCI-H226 cells. The series is described as follows: Cell viability / cell death (ferroptosis) in NCI-H226 cells. The series is classed as cell-based, human. To be noted: pretreatment 48 hours (C-Asp, DHO, OA 100 μM; uridine 50 μM), RSL3 4 hours. As to the method: (§1) Viable cells were measured using Cell Counting Kit-8 (CCK-8, Dojindo) as previously described (Koppula, P., Zhang, Y., Shi, J., Li, W. & Gan, B, J Biol Chem 292, 14240-14249 (2017); Liu, X. & Gan, B, Cell Cycle 15, 3471-3481 (2016)). Briefly, cells were seeded onto 96-well plates at a density of 2×10^4 per well. The next day, cells were treated with GPX4 or DHODH inhibitors for 4 hours. Subsequently, cells exposed to 10 μl CCK-8 reagent (100 μl medium per well) for 1 hour at 37° C., 5% CO2 in an incubator. The absorbance at a wavelength of 450 nm was determined using a FLUOstar Omega microplate reader (BMG Labtech).
(§2) Cell death was measured by propidium iodide (Roche) staining using a flow cytometer, as previously described (Dai, F., et al., Proc Natl Acad Sci USA 114, 3192-3197 (2017); Zhang, Y., et al., Cancer Res 80, 2243-2256 (2020)). For propidium iodide-staining, cells were seeded at a density of 50% confluence into 12-well plates. The next day, cells were treated with different reagents. To measure cell death, the cells were collected (including floating dead cells), stained with 5 μg/ml propidium iodide and the percentage of the propidium iodide-positive dead cell population was analyzed using the flow cytometer BD Accuri C6 (BD Biosciences) and an FL2 detector. A minimum of 10,000 single cells were analyzed per well and all experiments were carried out at least in triplicate.

The next series relates to NCI-H226 cells. Description: Intracellular metabolite levels upon supplementation. The series is classed as in vitro ADME, human. As to conditions: for intracellular levels upon supplementation: 100 μM, 48 hours. As to the method:
(§3) Metabolomic analysis was performed as previously described (Liu, X., et al., Nat Cell Biol 22, 476-486 (2020)). Cells were seeded on 35 mm culture plates at a density sufficient to ensure approximately 70-80% confluence at the time of extraction. For metabolic tracer analysis of pyrimidine synthesis, HT-1080 cells were treated with RSL3 and/or Lip-1 for 2 hours and then were shifted to drug-free media containing amide-^15N-glutamine (this time point is defined as 0 hour). Metabolites were extracted at the indicated time points for subsequent analyses. Metabolites were extracted by rapidly aspirating the culture medium and then adding 0.6 mL of an 80% methanol: 20% water mixture at dry ice temperature. The plates were incubated on dry ice for 15 minutes before the cell material was scraped into eppendorf tubes pre-chilled on ice. The cell debris was pelleted by centrifugation at 13,000 RCF for 5 minutes at 4° C. and the supernatant was transferred to a fresh tube and stored on dry ice until analysis. Just prior to analysis, 500 μL of extract was dried under nitrogen gas flow and then resuspended in 100 μL water.
(§4) The complete platform consists of an Accela 1250 HPLC system, Accela Open Autosampler, MayLab Mistraswitch column oven and Exactive orbitrap mass spectrometer, controlled by the Xcalibur 3.0.63 software package. Chromatography was performed with a Phenomenex Synergi Hydro-RP column (100×2 mm, 2.5 μm particle size). Solvent A is 10 mM tributylamine and […] acetic acid in water; Solvent B is methanol. The gradient is: 0 min, 0% B; 2.5 min, 0% B; 5 min, 20% B; 7.5 min, 20% B; 13 min, 55% B; 15.5 min, 95% B; 18.5 min, 95% B; 19 min, 0% B; 25 min, 0% B. The injection volume was 10 μL. The column temperature was set to 40° C., and the flow rate was 200 μL/min. The Exactive was operated in negative ionization mode with an electrospray ionization interface. The instrument parameters are as follows: sheath gas flow rate 30 (arbitrary units), aux gas flow rate 10 (arbitrary units), sweep gas flow rate 3 (arbitrary units), spray voltage 3 kV, capillary temperature 325° C., capillary voltage −25 V, tube lens voltage −50 V. The scan range was set to 80-1000 m/z, with a maximum inject time of 250 ms, resolution of 100,000 at 1 Hz, and AGC (automatic gain control) target 1E6. The data were analyzed using the MAVEN software suite57 with signal intensity determined as the Peak Area (Top). For metabolic labeling experiments, the data were corrected to account for the natural abundance of nitrogen-15 using IsoCorrectoR (Heinrich, P., et al., Sci Rep 8, 17910 (2018)).

Series [1] relates to GPX4^high and GPX4^low cancer cell lines. The series is described as follows: Cell viability in panel of GPX4^high and GPX4^low cancer cell lines. Type of series: cell-based, human. To be noted: supplementation 100 μM 48 hours, RSL3 4 hours. As to the method: as §1
The subject of series [2] is multiple cancer cell lines. The series is described as follows: Global metabolomic analysis. The series is classed as cell-based, human. As to conditions: short-term (2-hour) treatment, 10 μM. As to the method: as §3, §4
Series [3] concerns DHODH KO HT-1080 cells. The series is described as follows: Cell viability / cell death (ferroptosis) in DHODH KO HT-1080 cells. As to conditions: for protection against GPX4 inhibition (RSL3 or ML162)-induced ferroptosis: DHODH KO, pretreatment 10 μM, 24 hours. Type of series: cell-based, human. As to the method:
Knockout of DHODH, ACSL4 and COQ2 in human cell lines was performed using single guide RNAs (sgRNAs) and doxycycline (DOX)-inducible CRISPR-Cas9 expression system as described in our recent publication (Lee, H., et al., Nature cell biology 22, 225-234 (2020)). sgRNAs were cloned into the lentiviral lentiGuide vector. LentiGuide clones were transfected into HEK293T cells with psPAX2 packaging plasmid and pMD2.G expressing plasmid. Cells were infected with lentivirus with 0.8 μg/ml polybrene, selected with puromycin (1 μg/ml, InvivoGen), blasticidin (2 μg/ml, InvivoGen) or hygromycin B (2 μg/ml, InvivoGen) for 3 days and then single cells were sorted into 96-well plates. Single cells were maintained in DMEM with 10% (v/v) FBS and 1% (v/v) penicillin/streptomycin at 37° C. in an incubator with 20% O2 and 5% CO2 for 3-4 weeks and each colony was verified by western blot to confirm the target gene deletion. To generate cell lines with DOX-inducible CRISPR-Cas9-mediated gene deletion, cells were infected with lentivirus, selected with puromycin (1 μg/ml, InvivoGen), blasticidin (2 μg/ml, InvivoGen) or hygromycin B (2 μg/ml, InvivoGen) for 2 days and then single cells were sorted into 96-well plates. Once cell lines were established, 1 μg/ml of DOX (Sigma-Aldrich) was added to the media to induce target gene deletion for 48 hours after selection; then cells were cultured in DOX-free media for subsequent analyses.
as §1, §2

A further series has as its system GPX4^high HT-1080 cells. Description: Cell viability / cell death (ferroptosis) in HT-1080 cells. As to conditions: 24 hours; for protection against GPX4 inhibition (RSL3 or ML162)-induced ferroptosis: DHODH WT, pretreatment 10 μM. The series is classed as cell-based, human. As to the method: Briefly, cells were seeded onto 96-well plates at a density of 2×10^4 per well. The next day, cells were treated with GPX4 or DHODH inhibitors for 4 hours. Subsequently, cells exposed to 10 μl CCK-8 reagent (100 μl medium per well) for 1 hour at 37° C., 5% CO2 in an incubator. The absorbance at a wavelength of 450 nm was determined using a FLUOstar Omega microplate reader (BMG Labtech).
For propidium iodide-staining, cells were seeded at a density of 50% confluence into 12-well plates. The next day, cells were treated with different reagents. To measure cell death, the cells were collected (including floating dead cells), stained with 5 μg/ml propidium iodide and the percentage of the propidium iodide-positive dead cell population was analyzed using the flow cytometer BD Accuri C6 (BD Biosciences) and an FL2 detector. A minimum of 10,000 single cells were analyzed per well and all experiments were carried out at least in triplicate.

For series [4], the system named is DHODH KO HT-1080 cells. The series is described as follows: Mitochondrial lipid peroxidation (mito-BODIPY) in DHODH KO HT-1080 cells. Type of series: cell-based, human. To be noted: pretreatment 10 μM, 24 hours.

`NC(=O)N[C@@H](CC(=O)O)C(=O)O` [C-Asp, N-Carbamoyl-L-aspartate]: in the series with GPX4^low NCI-H226 cells, the “effect of supplementation on cellular sensitivity to GPX4 inhibition (RSL3)” value (from here on “effect … to GPX4 inhibition (RSL3)”) was “did not affect ferroptosis sensitivity”. In the series on NCI-H226 cells, the cell permeability result is reported as “largely impermeable to cells” and the “intracellular levels upon supplementation” value is recorded as “only moderately increased”.
On to `O=C1CC(C(=O)O)NC(=O)N1` (stereo not shown) [DHO, dihydroorotate], for which the “effect … to GPX4 inhibition (RSL3)” value in the series on GPX4^low NCI-H226 cells is recorded as “protected cells from”. Moreover, in series [1], the “protecting (DHO) or sensitizing (OA) effect in GPX4^low versus GPX4^high cell lines” value was “much more pronounced”. Also, the “intracellular levels upon supplementation” value in the series on NCI-H226 cells is recorded as “drastically increased”.
For the compound `COc1ccc(N(C(=O)CCl)C(C(=O)NCCc2ccccc2)c2cccs2)cc1Cl` (stereo not shown) [ML162], in series [2], the C-Asp level entry is on record as “marked depletion” and the uridine level result is on record as “concomitant accumulation”. Further, the “sensitization by DHODH deletion to compound-induced lipid peroxidation and ferroptosis” value in the series on DHODH KO HT-1080 cells [3] (uridine-supplemented conditions) was “markedly sensitized”.
On to `O=C(O)c1cc(=O)[nH]c(=O)[nH]1` [OA, orotate], for which the “effect … to GPX4 inhibition (RSL3)” value with GPX4^low NCI-H226 cells was “sensitized cells to”. Besides, the “protecting (DHO) or sensitizing (OA) effect in GPX4^low versus GPX4^high cell lines” value in series [1] is “much more pronounced”. The “intracellular levels upon supplementation” value in the series with NCI-H226 cells is “drastically increased”.
Consider `CC1(C)CCCC(C)(C)N1[O]` [TEMPO, 2,2,6,6-tetramethyl-1-piperidinyloxy], for which the “protection against GPX4 inhibition (RSL3 or ML162)-induced ferroptosis” value (“protection against GPX4 inhibition” for short) in the series on GPX4^high HT-1080 cells and in the series with DHODH KO HT-1080 cells [3] was “rescued” each time. Further, in the series on DHODH KO HT-1080 cells [4], the “suppression of GPX4 inhibitor-induced mitochondrial lipid peroxidation” value is “could be suppressed”.
Regarding `CC1(C)CC(NC(=O)C[P+](c2ccccc2)(c2ccccc2)c2ccccc2)CC(C)(C)N1[O]` [mito-TEMPO, 2-(2,2,6,6-tetramethylpiperidin-1-oxyl-4-ylamino)-2-oxoethyl) triphenylphosphonium chloride], in the series on DHODH KO HT-1080 cells [3], the “protection against GPX4 inhibition” value is reported as “provided substantial protection”. Further, the “suppression of GPX4 inhibitor-induced mitochondrial lipid peroxidation” value in the series with DHODH KO HT-1080 cells [4] is “could be suppressed”.
With `COC1=C(OC)C(=O)C(CCCCCCCCCC[P+](c2ccccc2)(c2ccccc2)c2ccccc2)=C(C)C1=O` [mitoQ, [10-(4,5-dimethoxy-2-methyl-3,6-dioxo-1,4-cyclohexadien-1-yl)decyl] triphenyl-phosphonium, monomethanesulfonate], the “protection against GPX4 inhibition” value in the series with GPX4^high HT-1080 cells is “provided limited protection”.
Regarding `COc1c(O)c(C)c(CCCCCCCCCC[P+](c2ccccc2)(c2ccccc2)c2ccccc2)c(O)c1OC.CS(=O)(=O)[O-]` [mitoQH2, [10-(2,5-dihydroxy-3,4-dimethoxy-6-methylphenyl)decyl] triphenyl-phosphonium, monomethanesulfonate], the entries for the “protection against GPX4 inhibition” value with GPX4^high HT-1080 cells and in the series with DHODH KO HT-1080 cells [3] were “provided limited protection” and “significantly protected”, respectively. For the same compound, in the series with DHODH KO HT-1080 cells [4], the “suppression of GPX4 inhibitor-induced mitochondrial lipid peroxidation” value is “significantly protected”.
In the case of “N-benzyloxycarbonyl-val-ala-asp(o-me) fluoromethyl ketone [Z-VAD-FMK]”, the “rescue of DHODH inhibition-induced cell death” value in the series on GPX4^high HT-1080 cells (BQR, pretreatment Lip-1 or ZVF 10 μM) was “the opposite was observed”.
